From patent publication US9173878B2, “Brain function improving agent” (Tohoku University, priority 2012, dated 2015)
Where a name gives a salt, the structure may show the parent alone.

Tests used:
[1] = tested on: Alzheimer's disease; conditions: treating Alzheimer's disease; cited from earlier work
[2] = tested on: CaMKII; assay: CaMKII self-phosphorylation (activation) in hippocampus CA1 region, immunoblot; type: cell-based, mouse; conditions: hippocampus CA1 region 60 minutes after LTP, 100 pM
Experimental: The brain of a male mouse C57BL/6 (10-12 weeks old) was sagitally sectioned, then a coronal section brain slice (400 μm) including a hippocampus CA1 region was prepared. The hippocampus slice was recovered in an artificial cerebrospinal fluid (126 mM NaCl, 5 mM KCl, 26 mM NaHCO3, 1.3 mM MgSO4-7H2O, 1.26 mM KH2PO4, 2.4 mM CaCl2-2H2O, 10 mM glucose) saturated by a 95% O2/5% CO2 gas at 34° C. for 2 hours. The hippocampus slice was transferred to a measurement chamber, and ST101 (100 pM), SAK1 (100 pM), SAK3 (100 pM) were added to the artificial cerebrospinal fluid, and perfused. Then, the Schaffer branch to be input to the hippocampus CA1 region and the commissural fibers were stimulated by stimulus electrodes, and the postsynaptic potential (fEPSP; field excitatory postsynaptic potential) in the CA1 region induced thereby was measured. […]
The above frozen mouse brain slice segment (hippocampus CA1 region) is used for homogenization on ice by adding 150 μL homogenizing buffer (50 mM Tris-HCl pH 7.5, 0.5% Triton X-100, 4 mM EGTA, 0.5 M NaCl, 10 mM EDTA, 1 mM Na3VO4, 30 mM sodium pyrophosphate, 50 mM NaF, 1 mM DTT, 100 nM calyculin A, 50 μg/mL leupeptin, 25 μg/mL pepstatin A, 50 μg/mL trypsin inhibitor) per sample. […] The protein concentration was measured by the Bradford method using a part of the supernatant. […]

[3] = tested on: mouse hippocampus CA1 region; assay: Long-term potentiation of synaptic transmission (LTP), fEPSP in hippocampus slice; type: cell-based; conditions: 100 pM in artificial cerebrospinal fluid
Experimental: The brain of a male mouse C57BL/6 (10-12 weeks old) was sagitally sectioned, then a coronal section brain slice (400 μm) including a hippocampus CA1 region was prepared. The hippocampus slice was recovered in an artificial cerebrospinal fluid (126 mM NaCl, 5 mM KCl, 26 mM NaHCO3, 1.3 mM MgSO4-7H2O, 1.26 mM KH2PO4, 2.4 mM CaCl2-2H2O, 10 mM glucose) saturated by a 95% O2/5% CO2 gas at 34° C. for 2 hours. The hippocampus slice was transferred to a measurement chamber, and ST101 (100 pM), SAK1 (100 pM), SAK3 (100 pM) were added to the artificial cerebrospinal fluid, and perfused. Then, the Schaffer branch to be input to the hippocampus CA1 region and the commissural fibers were stimulated by stimulus electrodes, and the postsynaptic potential (fEPSP; field excitatory postsynaptic potential) in the CA1 region induced thereby was measured. After measurement, just the hippocampus CA1 region was sliced from the slice segment, and frozen for preservation at −80° C. for measurement with immunoblotting.

[4] = tested on: olfactolectomy mouse (OBX mouse); assay: Y maze test in olfactolectomized (OBX) mouse; type: in vivo; conditions: 1 mg/kg administered into the abdominal, 30 minutes before test
Experimental: (§1) A 10 weeks old DDY male mouse (Nippon SLC, Hamamatsu, Japan) was used in the experiment. The animal was bred in an animal experiment facility in the Pharmaceutical Research Department of the Tohoku University Graduate School under a certain condition (temperature 22±2° C., 12 h: 12 h light-dark cycle) by freely providing water and a feed. Note that the handling of animals and animal experiments in the present paper was performed with an approval of Tohoku University Experimental Animal Committee and under the Tohoku University Animal Experiment Guideline.
(§2) An olfactolectomy mouse (OBX mouse) was prepared using a DDY male mouse. The olfactolectomy operation was performed under the condition of anesthesia by pentobarbital sodium (50 mg/kg i.p.; Dainippon, Osaka, Japan). […]
Y maze test: A Y maze test was performed to assess the spontaneous action amount and the spatial activity memory of a mouse. The mouse was place at the end of one of the arms in the Y maze and allowed to freely explore the maze for 8 minutes, then the positions of the arms that the mouse travelled were recorded in the order of selection. The number of times that the mouse travelled to each arm in the time of measurement was counted as total arm entries. Further, the combinations of consecutively selecting 3 different arms were counted as No. of alternation. […]

[5] = tested on: CaMKII; assay: CaMKII self-phosphorylation (activation) in cultured mouse cerebral cortex cell, immunoblot; type: cell-based; conditions: 100 pM, 30 minutes of incubation
Experimental: The above frozen mouse brain slice segment (hippocampus CA1 region) is used for homogenization on ice by adding 150 μL homogenizing buffer (50 mM Tris-HCl pH 7.5, 0.5% Triton X-100, 4 mM EGTA, 0.5 M NaCl, 10 mM EDTA, 1 mM Na3VO4, 30 mM sodium pyrophosphate, 50 mM NaF, 1 mM DTT, 100 nM calyculin A, 50 μg/mL leupeptin, 25 μg/mL pepstatin A, 50 μg/mL trypsin inhibitor) per sample. Then, centrifugation was performed using a refrigerated centrifuge (14,000×g, 10 minutes, 4° C.), after which 100 μL of supernatant was collected and 20 μL of 6× Laemmli buffer was added to the supernatant to be boiled at 100° C. for 3 minutes, to form an immunoblotting sample. The protein concentration was measured by the Bradford method using a part of the supernatant. Reagants containing the same amount of protein were added to 10% SDS-polyacrylamido electrophoresis gel (SDS-PAGE gel), and SDS-PAGE was performed at 80 mA per 1 sheet of gel for 180 minutes. After separation by electrophoresis, transcription to a PVDF membrane was performed at 70 V for 120 minutes. […] After washing with a TTBS solution, ECL detection system (GE healthcare) was used to induce luminescence of HRP that labels the second antibody, and the X-ray film (Fuji Medical X-ray Film, Fuji Film) was sensitized to detect the band. An NIH image analysis software was used for a quantification analysis of the immunoreaction product.
The dispersion cultivation of a mouse cerebral cortex cell was performed by a previously reported method (Fukunaga et al., J. Biol. Chem. 267, 22527-22533, 1992). […] The frozen cerebral cortex cells were subjected to quantification analysis of the activation state (self-phosphorylation reaction) of CaMKII by the immunoblotting method after homogenization, similarly to the method in Test Example 2.

[6] = tested on: olfactolectomy mouse (OBX mouse); assay: Acetylcholine liberation in hippocampus by microdialysis; type: in vivo
Experimental: The amount of acetylcholine liberated in hippocampus is measured by the microdialysis method. The set up of guide cannula and dialysis probe (AG-4; Eicom, Kyoto, Japan) was conducted by fixing the mouse to the brain stereotaxis apparatus under the condition of maintaining anesthesia by 1.5% halothane (Takeda Chemical Industries Ltd., Osaka, Japan), setting up a guide cannula to the left hippocampus (AP=+3. L=+3, V=-1.8), and inserting a dialysis probe to the guide cannula. The collection of a intracerebral Ach sample from a mouse hippocampus was performed a day after the probe set up operation. After the recovery of the mouse from the operation was confirmed, the probe was connected to a micropump (ESP-64; Eicom) under an unanesthetized state and free activity, and a Ringer's solution (1.3 mM CaCl2. 3 mM KCl, 146 mM NaCl and 1 mM MgSO4) was introduced at a flow rate of 2 μL per minute. The dialysis sample was collected every 19.5 minutes and inserted to the acetylcholine separation column using an autoinjector (EAS-20, Eicom), and a system for a trace element analysis of biological samples (HTEC-500; Eicom) was used for analysis. SAK3 was intraperitoneally administered at 40 minutes before test (at the -40 minutes point in the graph of FIG. 8). […]

[7] = molecular target: T1, T-type calcium channel (Cav 3.1) (Homo sapiens, UniProt O43497); assay: Calcium imaging (Fura-2) in Cav 3.1 gene-transfected Neuro2A cells; type: cell-based, mouse; conditions: for change in calcium concentration after SAK3 addition: Cav3.1 expressing cells
T1 construct: Thermo Fisher Scientific Ltd. (vector pCMV-SPORT6); host or cells: mouse neuroblastoma cell line Neuro2A, transient transfection with Lipofectamine 2000
T1 sequence (O43497 whole entry): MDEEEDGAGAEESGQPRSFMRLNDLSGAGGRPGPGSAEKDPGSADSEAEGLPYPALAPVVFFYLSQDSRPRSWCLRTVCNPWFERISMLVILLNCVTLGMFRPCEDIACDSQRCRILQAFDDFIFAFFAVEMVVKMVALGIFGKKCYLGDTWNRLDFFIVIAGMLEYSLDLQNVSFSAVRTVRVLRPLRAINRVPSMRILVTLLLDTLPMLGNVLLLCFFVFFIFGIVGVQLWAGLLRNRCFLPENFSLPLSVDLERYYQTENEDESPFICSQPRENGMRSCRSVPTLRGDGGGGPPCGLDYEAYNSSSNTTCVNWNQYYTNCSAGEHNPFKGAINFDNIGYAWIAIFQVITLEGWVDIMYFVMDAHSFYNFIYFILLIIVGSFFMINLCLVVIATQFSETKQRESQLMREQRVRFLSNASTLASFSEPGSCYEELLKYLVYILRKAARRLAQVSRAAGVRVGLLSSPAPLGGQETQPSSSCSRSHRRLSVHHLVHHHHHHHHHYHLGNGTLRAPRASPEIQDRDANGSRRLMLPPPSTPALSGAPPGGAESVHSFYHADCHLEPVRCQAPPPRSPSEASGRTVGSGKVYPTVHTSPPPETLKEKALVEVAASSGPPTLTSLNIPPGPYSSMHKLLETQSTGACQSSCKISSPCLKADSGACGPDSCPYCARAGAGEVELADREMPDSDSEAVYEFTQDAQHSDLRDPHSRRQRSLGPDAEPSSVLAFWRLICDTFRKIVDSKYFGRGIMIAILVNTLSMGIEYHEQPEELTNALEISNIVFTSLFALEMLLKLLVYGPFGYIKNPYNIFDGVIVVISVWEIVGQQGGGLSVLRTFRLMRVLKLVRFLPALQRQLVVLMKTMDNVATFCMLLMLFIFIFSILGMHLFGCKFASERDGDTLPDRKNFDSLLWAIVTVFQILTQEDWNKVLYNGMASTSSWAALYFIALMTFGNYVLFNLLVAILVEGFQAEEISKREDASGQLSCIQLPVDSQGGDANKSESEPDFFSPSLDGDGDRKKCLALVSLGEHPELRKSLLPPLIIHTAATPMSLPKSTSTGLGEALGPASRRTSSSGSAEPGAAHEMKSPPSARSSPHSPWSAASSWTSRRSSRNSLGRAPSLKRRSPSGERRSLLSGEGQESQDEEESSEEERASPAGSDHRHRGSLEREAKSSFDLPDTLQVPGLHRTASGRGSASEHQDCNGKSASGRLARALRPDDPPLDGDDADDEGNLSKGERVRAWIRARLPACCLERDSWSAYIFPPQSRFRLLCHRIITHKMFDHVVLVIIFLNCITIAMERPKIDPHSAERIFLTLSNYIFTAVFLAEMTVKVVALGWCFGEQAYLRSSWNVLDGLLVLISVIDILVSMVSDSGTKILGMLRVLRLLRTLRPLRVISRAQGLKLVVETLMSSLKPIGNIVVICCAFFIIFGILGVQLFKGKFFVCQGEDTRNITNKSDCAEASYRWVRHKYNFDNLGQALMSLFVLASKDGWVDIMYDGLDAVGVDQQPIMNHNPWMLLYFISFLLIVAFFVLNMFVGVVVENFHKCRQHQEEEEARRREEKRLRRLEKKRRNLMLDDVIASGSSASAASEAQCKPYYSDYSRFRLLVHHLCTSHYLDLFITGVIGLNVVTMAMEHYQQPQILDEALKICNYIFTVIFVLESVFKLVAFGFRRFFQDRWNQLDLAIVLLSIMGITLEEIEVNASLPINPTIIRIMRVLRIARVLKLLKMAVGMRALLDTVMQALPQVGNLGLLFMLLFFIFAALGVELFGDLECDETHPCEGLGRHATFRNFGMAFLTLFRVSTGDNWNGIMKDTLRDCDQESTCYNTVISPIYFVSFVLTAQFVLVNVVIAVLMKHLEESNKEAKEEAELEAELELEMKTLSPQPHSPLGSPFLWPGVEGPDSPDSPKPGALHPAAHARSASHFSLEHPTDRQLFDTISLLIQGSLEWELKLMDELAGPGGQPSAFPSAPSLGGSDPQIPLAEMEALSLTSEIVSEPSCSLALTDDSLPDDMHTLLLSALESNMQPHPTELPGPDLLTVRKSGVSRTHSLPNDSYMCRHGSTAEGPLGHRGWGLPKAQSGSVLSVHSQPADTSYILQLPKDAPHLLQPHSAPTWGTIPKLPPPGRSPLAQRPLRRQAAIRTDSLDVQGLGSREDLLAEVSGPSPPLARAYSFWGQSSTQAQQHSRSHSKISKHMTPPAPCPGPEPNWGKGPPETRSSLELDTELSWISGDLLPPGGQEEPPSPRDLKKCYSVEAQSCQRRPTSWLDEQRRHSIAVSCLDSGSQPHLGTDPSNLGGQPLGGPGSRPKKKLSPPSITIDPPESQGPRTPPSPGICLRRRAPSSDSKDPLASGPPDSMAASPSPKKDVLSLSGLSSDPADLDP
Experimental: (§3) The cells of mouse neuroblastoma cell line Neuro2A were purchased from the Human Science Research Resources Bank (#IFO50081, Osaka, Japan). […] Then, the Neuro2A cells were seeded to a glass bottom dish at a concentration of 1 to 2×10^6 cell/φ35-mm dish, and cultivated for 24 hours in a standard culture medium, and the cells were transfected using Lipofectamine 2000 (Invitrogen, Carsbad, Calif., USA) and using a plasmid vector containing a T-type calcium channel (Cav 3.1) genes (serum-free culture of Lipofectamine 2000: DNA=1 μl: 1 μg, 1.5 ml). The T-type calcium channel (Cav 3.1) gene, the plasmid vector pCMV-SPORT6, and the Lipofectamine 2000 were respectively purchased from OriGene Technologies, Inc., Thermo Fisher Scientific Ltd., and Invitrogen, and the transfection was performed according to the protocol attached to Lipofectamine 2000 other than the rate adjustment of the Lipofectamine 2000 and plasmid vector. The serum-free culture was replaced with a standard culture 6 hours after transfect, and calcium imaging (calcium concentration measurement) was performed after Cav 3.1 expression was confirmed after 48 hours of culture. T-type calcium channel expressing Neuor2A cells were dispersed in a glass bottom dish, and 2.5 μM of Fura-2-AM (Sigma, St Louis, Mo., USA) was added to the dish in perfusion (Krebs-Hepes buffer; KRH), then the dish was incubated at 37° C. for 30 minutes. A Fura-2-AM-free KRH was replaced with perfusion, and the Neuro2A cells were stimulized with SAK3 (100 pM) as the intracellular calcium was measured with a fluorescent microscope, then the cells were further stimulized with nicotin (1 μM), ATP (0.1 μM), DHPG (20 μM), as necessary.

[8] = tested on: non-transfected mouse neuroblastoma cell line Neuro2A; assay: Calcium imaging (Fura-2) in T-type calcium channel non-expressing Neuro2A cells; type: cell-based
Experimental: as §3

[9] = tested on: olfactolectomy mouse (OBX mouse); assay: Novel object recognition test in olfactolectomized (OBX) mouse; type: in vivo; conditions: 1 mg/kg administered into the abdominal, 30 minutes before test
Experimental: as §1
as §2, with “Japan). The mouse was fixed to a brain brace, and the skull bone above the olfactory bulb was drilled to open a hole of 1 mm diameter.” for “Japan).”
Novel object recognition test: The present test uses a mouse's characteristic of preferring novel objects, and the mouse was allowed to freely explore the device in which 2 objects are placed for 10 minutes (training session). […] The numbers of contacts for the 2 objects in the training session and the trial session were measured. The percentage (%) of the number of contacts of the novel object against the number of total contacts in the trial session was calculated as the Discrimination index.

In the case of `COc1cc2c(cc1OC)C(=O)C(CC1CCN(Cc3ccccc3)CC1)C2` (stereo not shown) [Donepezil hydrochloride], the “efficacy ratio of the clinical result” value [1] is listed as “about 50%”.
With `CCOC(=O)C1=C(SC)C2(CC1=O)C(=O)N=C1C=CC=CN12` (stereo not shown) [SAK1] the “phosphorylated CaMKII / CaMKII activation” value [2] was “an increase of phosphorylated CaMKII and a potentiation of CaMKII activation were confirmed” and the LTP potentiation effect [3] was “a strong potentiation effect was observed”.
In the case of `CCOC(=O)C1=C(N2CCCCC2)C2(CC1=O)C(=O)N=C1C(C)=CC=CN12` (stereo not shown) [SAK3], the “phosphorylated CaMKII / CaMKII activation” value [2] is reported as “an increase of phosphorylated CaMKII and a potentiation of CaMKII activation were confirmed”, the “improvement of cognitive dysfunction by olfactolectomy (Y maze test)” value [4] is reported as “almost completely improved” and the “phosphorylated CaMKII / activation of CaMKII” value [5] is reported as “increased phosphorylated CaMKII”. The LTP potentiation effect [3] was “a strong potentiation effect was observed”, the “amount of acetylcholine liberated by nicotine in hippocampus” value ([6]; 1.0 mg/kg administration group, compared with Sham group) was “above that of the Sham group” and the “amount of acetylcholine liberated by nicotine in hippocampus” value ([6]; intraperitoneal, 40 minutes before test, versus group without SAK3) was “increased”. The “amount of influent calcium ion induced by adding ATP” value ([7]; ATP 0.1 μM, under the presence of SAK3 100 pM, transfected cells) was “not potentiated”, the “change in calcium concentration after SAK3 addition” value ([7]; SAK3 100 pM) was “An increase in calcium concentration was confirmed” and the “change in calcium concentration after SAK3 addition” value ([7]; SAK3 100 pM, mibefradil (10 μM) added) was “no increase in calcium concentration by SAK3 was confirmed”. The “amount of intracellular influent calcium ion induced by SAK3” value ([7]; Cav3.1 transfected cells, SAK3 100 pM) was “showed an increase in the amount of influent calcium ion”, the “increase in amount of influent calcium ion induced by SAK3” value ([7]; Cav3.1 transfected cells, addition of mibefradil (10 μM)) was “nearly cancelled out” and the “amount of influent calcium ion induced by adding DHPG” value ([7]; DHPG 20 μM, under the presence of SAK3 100 pM, transfected cells) was “not potentiated”. For the same compound, the “activation of T-type voltage dependent calcium channel relative to ST101” value ([7]; compared with ST101) was no less than 10 folds, the “increase of the amount of influent calcium ion induced by nicotin under the presence of SAK3, transfected cells relative to non-transfected cells” value ([7]; nicotin 1 μM, SAK3 100 pM) was 2 folds and the “effect of SAK3 on amount of influent calcium ion induced by nicotin” value ([7]; nicotin 1 μM, mibefradil (10 μM) added) was “cancelled out”. The “change in calcium concentration after SAK3 addition” value ([8]; Cav3.1 non-expressing cell, SAK3 100 pM) was “there was no change in the calcium concentration”, the “amount of intracellular influent calcium ion induced by SAK3” value ([8]; Cav3.1 non-transfected cells, SAK3 100 pM) was “do not show the change in the amount of influent calcium ion” and the “improvement of cognitive dysfunction by olfactolectomy (novel object recognition test)” value [9] was “almost completely improved”.
For `CCOC(=O)C1=C(N2CCCCC2)C2(CC1=O)C(=O)N=C1C=CC=CN12` (stereo not shown) [SAK8], the “phosphorylated CaMKII / activation of CaMKII” value [5] was “increased phosphorylated CaMKII”.
For `CCOC(=O)C1=C(N2CCCCC2)C2(CC1=O)C(=O)N=C1C(C)=CC(C)=CN12` (stereo not shown) [SAK9], the “phosphorylated CaMKII / activation of CaMKII” value [5] was “increased phosphorylated CaMKII”.
For `O=C1N=C2C=CC=CN2C12Cc1ccccc1C2` [ST101, reference compound], the LTP potentiation effect [3] was “does not show a strong LTP potentiation effect”.
For `CN1CCCC1c1cccnc1` (stereo not shown) [nicotin, reference compound], the “change in calcium concentration after adding nicotin” value ([8]; Cav3.1 non-expressing cell, nicotin 1 μM) was “an increase in the calcium concentration after adding nicotin was confirmed”.
